From US10500198B2, “Bis-benzylidine piperidone proteasome inhibitor with anticancer activity” (The Johns Hopkins University, priority 2013, dated 2019)
Structures can show the parent of a compound that is named as a salt. Where two headings read alike, the source gives them in different places. Where a SMILES comes first, the peptide text is derived from it. The star is where a group is joined. Cbz = O=C(OCc1ccccc1)*

How the values were obtained:
HeLa = experiment: Cell viability after 48-hr treatment (Table 1); type: cell-based, human; details: for IC50: read-out: IC50, HeLa; for potency in cell killing and polyubiquitin accumulation / functional assays relative to RA190: HeLa cells, FIGS. 1I, 9I, 10A-10C
Experimental: (§1) Cell viability was assayed using CellTiter 960 AQueous One Solution Reagent (Promega, Madison, Wis.). Cells seeded at the concentration of 1,000 cells/well for HeLa, 5,000 cells/well for ES2 and HCT116 and 10,000-20,000 cells/well for other cell lines in 100 μL medium in 96-well plate were treated with RA series compounds at specified concentrations. […]

OVCAR3 = experiment: Cell viability after 48-hr treatment (Table 1); type: cell-based, human; details: XTT assay
Experimental: as §1

CasKi = experiment: Cell viability after 48-hr treatment (Table 1); type: cell-based; details: read-out: IC50, CasKi
Experimental: (§2) Cell viability was assayed using CellTiter 960 AQueous One Solution Reagent (Promega, Madison, Wis.). Cells seeded at the concentration of 1,000 cells/well for HeLa, 5,000 cells/well for ES2 and HCT116 and 10,000-20,000 cells/well for other cell lines in 100 μL medium in 96-well plate were treated with RA series compounds at specified concentrations. After the indicated periods, cells were incubated according to the manufacturer's protocol with the MTS labeling mixture for 1-2 hr and absorbance at 490 nm measured using a Benchmark Plus microplate spectrophotometer (BIO-RAD).

HOK-16B = experiment: Cell viability after 48-hr treatment (Table 1); type: cell-based; details: read-out: IC50, HOK-16B
Experimental: as §2

HT3 = experiment: Cell viability after 48-hr treatment (Table 1); type: cell-based; details: read-out: IC50, HT3
Experimental: (§3) Cells seeded at the concentration of 1,000 cells/well for HeLa, 5,000 cells/well for ES2 and HCT116 and 10,000-20,000 cells/well for other cell lines in 100 μL medium in 96-well plate were treated with RA series compounds at specified concentrations. […]

HaCaT = experiment: Cell viability after 48-hr treatment (Table 1); type: cell-based; details: read-out: IC50, HaCaT
Experimental: as §3

SiHa = experiment: Cell viability after 48-hr treatment (Table 1); type: cell-based; details: read-out: IC50, SiHa
Experimental: as §3

C33A = experiment: Cell viability after 48-hr treatment (Table 1); type: cell-based; details: read-out: IC50, C33A
Experimental: as §1

FaDu = experiment: Cell viability after 48-hr treatment (Table 1); type: cell-based; details: read-out: IC50, FaDu
Experimental: as §1

SKOV3 = experiment: Cell viability after 48-hr treatment (Table 1); type: cell-based; details: read-out: IC50, SKOV3
Experimental: as §1

RPN13 = target: T1, RPN13 (Homo sapiens, UniProt Q16186); experiment: Biotin labeling assay; type: binding; details: cell lysate or purified RP, streptavidin-peroxidase blot
T1 construct: endogenous in cells; host or cells: HeLa, HS578T cell lysate
T1 sequence (Q16186 whole entry): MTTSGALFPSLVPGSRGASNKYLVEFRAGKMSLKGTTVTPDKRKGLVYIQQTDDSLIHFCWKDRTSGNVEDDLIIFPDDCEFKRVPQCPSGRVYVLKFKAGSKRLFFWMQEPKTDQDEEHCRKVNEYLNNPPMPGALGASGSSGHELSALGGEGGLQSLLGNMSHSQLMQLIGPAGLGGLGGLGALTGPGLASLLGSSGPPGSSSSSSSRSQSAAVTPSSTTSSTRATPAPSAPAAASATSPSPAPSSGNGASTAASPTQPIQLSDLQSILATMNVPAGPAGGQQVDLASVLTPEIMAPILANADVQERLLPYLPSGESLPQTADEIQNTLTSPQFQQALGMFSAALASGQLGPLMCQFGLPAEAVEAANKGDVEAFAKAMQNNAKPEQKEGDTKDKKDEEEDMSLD
Experimental: FIGS. 10 A-10E show a series of graphs and immunoblots showing the effects of several compounds on cell viability and proteasome activity. […] 10B and 10C show immunoblots of the proteasome activity of cell lines treated with the indicated compounds. […] IC50 values were determined in triplicate. In FIG. 10B, HeLa cells were treated for 12 hr and the cell lysate was subjected to immunoblot analysis with anti-Ubiquitin antibody. In FIG. 10C, SiHa cells were treated with the indicated compounds for 12 hr and the lysate subjected to Western blot analysis with anti-Ubiquitin antibody. HeLa cell lysate was treated with RA190B, subjected to SDS-PAGE, and probed with streptavidin-peroxidase following protein transfer to a polyvinylidene difluoride (PVDF) membrane. The streptavidin-peroxidase bound to biotinylated cellular proteins, but a striking new band at 42 kDa appeared in RA190B-treated samples (FIG. 2A). […] IC50 values were determined in triplicate.
To eliminate the possibility that another RP component was required for RA190B interaction, RPN13 or an irrelevant protein (L2) was overexpressed in bacteria. Cell lysate harvested from bacteria either with or without […] induction of ectopic protein expression was labeled with RA190B and probed by blotting with streptavidin-peroxidase. RA190B reacted strongly with a 42 kDa protein only in lysates of bacteria expressing RPN13 (FIG. 2D). […] 800 μL fractions were collected and alternate fractions (1,3,5,7,9,11,13,15,17) were analyzed for the presence of proteasomal proteins (RPN13, RPN2, RPN1 and UCH37) by Western blot analysis.
Human cells (5×10^6 HeLa or 293TT cells) were lysed using MPER (Pierce) lysis buffer (500 μL). RPN13 or HPV L2 transformed bacterial cells (500 μL of culture) were centrifuged to harvest the cells which were re-suspended in 500 μL BPER (Pierce). Cell lysates were centrifuged at 10,000 rpm briefly (2 min) at 4° C. to remove cell debris. Lysate supernatant (200 μL) was pre cleared with streptavidin dyna beads (20 μL) for 1 h at 4° C. to remove non-specific biotin binding and incubated with compounds (indicated concentrations or 20 μM) at 4° C. for 1 hr. An equal amount of each sample (20 μL of lysate) was mixed with an equal volume of Laemmli sample buffer (20 μL) (BioRad) and was boiled for 5 min. […] (24 V). Membrane was blocked with 5% BSA in PBST for 1 hr at room temperature and washed for 20 min (3×PBST). Then the membrane was probed with HRP-streptavidin (1:10,000 in PBST) for 1 hr at room temperature and washed for 30 min (3×PBST) and developed using HyGLO chemiluminescent detection reagent (Denville) for biotin recognition. For the purified enzyme assay, 19S purified proteasome (R&D Systems, Cat. No. E-366) (500 ng) in 19S buffer (20 mM HEPES, 20 mM NaCl, 1 mM DTT, 15% Glycerol) was incubated with compounds (20 μM) for 1 hr at room temperature and mixed with an equal volume of Laemmli sample buffer (20 μL) (BioRad) and was boiled for 5 min. Each sample was loaded onto gel and followed the western blot protocol mentioned above.
Purified 19S proteasome (500 ng) was incubated with corresponding compounds for 30 min and subjected to immunoblot and probed with HRP-conjugated streptavidin. In FIG. 23, the single band at 42 KDa indicates Rpn13 binding to 195. RA183B (20 μM) is used as positive control for Rpn13 binding. Competition experiments were done with RA183 (100 μM) and RA195 (100 μM) along with RA195B (20 μM).

Row | Molecule | IC50 (HeLa; 48-hr treatment, XTT assay) [nM] | IC50 (OVCAR3) [nM] | IC50 (CasKi; 48-hr treatment, XTT assay) [nM] | IC50 (HOK-16B; 48-hr treatment, XTT assay) [nM] | IC50 (HT3; 48-hr treatment, XTT assay) [nM] | IC50 (HaCaT; 48-hr treatment, XTT assay) [nM] | IC50 (SiHa; 48-hr treatment, XTT assay) [nM] | IC50 (C33A; 48-hr treatment, XTT assay) [nM] | IC50 (FaDu; 48-hr treatment, XTT assay) [nM] | IC50 (SKOV3; 48-hr treatment, XTT assay) [nM] | potency in cell killing and polyubiquitin accumulation / functional assays relative to RA190 (HeLa) | also measured
1 | N[C@@H](Cc1c[nH]cn1)C(=O)N1CC(=Cc2ccc(Cl)c(Cl)c2)C(=O)C(=Cc2ccc(Cl)c(Cl)c2)C1 [RA196, 3,5-bis(3,4-dichlorobenzylidene)-1-(S-1H-imidazol-4-yl) piperidin-4-one di HCl salt] | 600 | 2500 | 1000 | 3000 | > 5000 | > 2500 | 2000 | > 5000 | > 5000 | > 2500 | – | –
2 | 3,5-bis(3,4-dichlorobenzylidene)-1-(S-2-amino-3-(4-hydroxy)-phenyl)-piperidin-4-one HCl salt [RA213] | 600 | > 5000 | 600 | 1500 | > 5000 | > 2500 | 2500 | > 5000 | > 5000 | > 2500 | – | –
3 | Cl.N[C@@H](Cc1ccccc1)C(=O)N1CC(C(SCCO)c2ccc(Cl)c(Cl)c2)C(=O)C(C(SCCO)c2ccc(Cl)c(Cl)c2)C1 (some centres unmarked) [RA190ME, 3,5-bis((2-hydroxyethylthio)(3,4-dichlorophenyl)methyl)-1-(S-2-amino-3-phenyl)-piperidin-4-one-HCl salt] | – | – | – | – | – | – | – | – | – | – | significantly reduced its potency | –
4 | N[C@@H](Cc1ccccc1)C(=O)N1CC(=Cc2ccccc2F)C(=O)C(=Cc2ccccc2F)C1 [RA201, 3,5-bis(2-fluorobenzylidene)-1-(S-2-amino-3-phenyl)-piperidin-4-one-HCl salt] | 350 | > 5000 | 2500 | 1500 | > 5000 | > 2500 | 2000 | > 5000 | > 5000 | > 2500 | – | –
5 | O=C(CCCC[C@@H]1SCC2NC(=O)NC21)NCCCC[C@H](NC(=O)OCC1c2ccccc2-c2ccccc21)C(=O)N1C/C(=C\c2ccc(Cl)c(Cl)c2)C(=O)/C(=C/c2ccc(Cl)c(Cl)c2)C1 (some centres unmarked) [RA195B] | – | – | – | – | – | – | – | – | – | – | – | labeling of / competition for RPN13 (42 kDa band) (RPN13): labels HeLa cell lysate at 42 KDa
6 | N[C@@H](Cc1ccccc1)C(=O)N1C/C(=C\c2ccc(Cl)c(Cl)c2)C(=NO)/C(=C/c2ccc(Cl)c(Cl)c2)C1 [RA190O] | – | – | – | – | – | – | – | – | – | – | dramatically reduced activity | –
7 | N[C@@H](Cc1ccccc1)C(=O)N1CC(=Cc2ccccc2)C(=O)C(=Cc2ccccc2)C1 [RA181, 3,5-dibenzylidene-1-(S-2-amino-3-phenyl)-piperidin-4-one-HCl salt] | 350 | > 5000 | 2000 | > 5000 | > 5000 | > 2500 | 2000 | > 5000 | > 5000 | > 2500 | – | –
8 | CC(C)C[C@@H](C=O)NC(=O)[C@H](CC(C)C)NC(=O)[C@H](CC(C)C)NC(=O)OCc1ccccc1 [MG132, reference compound] (Cbz-Leu-Leu-Leu-aldehyde) | – | – | – | – | – | – | – | – | – | – | – | IC50 (HeLa; Homo sapiens, HeLa, 48 h): 750 nM; IC50 (CasKi; Homo sapiens, Ca-Ski, 48 h): 500 nM; IC50 (HOK-16B; 48 h): 700 nM; IC50 (HT3; Homo sapiens, HT-3, 48 h): > 5000 nM; IC50 (HaCaT; Homo sapiens, HaCaT, 48 h): > 2500 nM; IC50 (SiHa; Homo sapiens, SiHa, 48 h): 2000 nM; IC50 (C33A; Homo sapiens, C-33-A, 48 h): > 5000 nM; IC50 (FaDu; Homo sapiens, FaDu, 48 h): > 2500 nM; IC50 (SKOV3; Homo sapiens, SK-OV-3, 48 h): > 2500 nM
9 | O=C(CCCC[C@@H]1SCC2NC(=O)NC21)N[C@@H](Cc1ccccc1)C(=O)N1C/C(=C\c2ccc(Cl)c(Cl)c2)C(=O)/C(=C/c2ccc(Cl)c(Cl)c2)C1 (some centres unmarked) [RA190B] | – | – | – | – | – | – | – | – | – | – | did not affect its potency | labeling of / competition for RPN13 (42 kDa band) (RPN13): bound to the 42 kDa protein
10 | N[C@@H](Cc1ccccc1)C(=O)N1CC(=Cc2ccccc2Cl)C(=O)C(=Cc2ccccc2Cl)C1 [RA166, 3,5-bis(2-chlorobenzylidene)-1-(S-2-amino-3-phenyl)-piperidin-4-one-HCl salt] | 600 | > 5000 | 1500 | > 5000 | > 5000 | > 2500 | 2000 | > 5000 | > 5000 | > 2500 | – | –
11 | N[C@@H](Cc1ccccc1)C(=O)N1CC(Cc2ccc(Cl)c(Cl)c2)C(O)C(Cc2ccc(Cl)c(Cl)c2)C1 (some centres unmarked) [RA190R] | – | – | – | – | – | – | – | – | – | – | dramatically reduced activity | –
